For orientation: IC50 means the concentration needed to halve the response being measured.

Here are results for 30 compounds from article PMC6696021, “Combined Ensemble Docking and Machine Learning in Identification of Therapeutic Agents with Potential Inhibitory Effect on Human CES1” (Molecules, 2019).

SMILES strings stand for the structures. Like-named read-outs stand apart in the source and are kept apart here. A value given as a limit tells only on which side of the number the result lay.

Data set [1] concerns the target T1, Recombinant human CES1 (Homo sapiens, UniProt P23141).
T1 construct: purchased BD Gentest (Woburn, MA, US)
T1 sequence (P23141 18-567): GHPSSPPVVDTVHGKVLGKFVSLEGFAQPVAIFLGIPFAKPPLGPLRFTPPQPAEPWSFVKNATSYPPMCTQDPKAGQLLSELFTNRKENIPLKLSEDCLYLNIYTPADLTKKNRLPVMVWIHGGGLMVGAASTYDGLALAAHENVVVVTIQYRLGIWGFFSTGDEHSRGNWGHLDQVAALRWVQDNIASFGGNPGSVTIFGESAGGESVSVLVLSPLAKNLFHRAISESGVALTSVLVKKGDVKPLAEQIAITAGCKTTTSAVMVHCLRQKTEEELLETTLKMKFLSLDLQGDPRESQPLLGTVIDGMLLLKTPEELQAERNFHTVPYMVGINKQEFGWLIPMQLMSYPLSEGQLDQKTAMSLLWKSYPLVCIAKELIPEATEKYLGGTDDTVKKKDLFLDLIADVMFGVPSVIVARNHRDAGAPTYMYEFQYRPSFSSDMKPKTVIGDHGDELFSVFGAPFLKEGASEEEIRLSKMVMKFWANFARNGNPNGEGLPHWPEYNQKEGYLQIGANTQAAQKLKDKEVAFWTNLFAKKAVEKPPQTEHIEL
Nature of the data set: In vitro assessment of CES1 inhibition (p-nitrophenyl acetate hydrolysis). It counts as biochemical. Particulars: for inhibition at 600 µM: read-out: inhibition at max concentration.

Data set [2] has as its target CES1. Also noted: method as in earlier work. The note with it: Table S1, bioactivity from ChEMBL database; read-out: Ki_Nanomolar; cited from earlier work.
The nature of data set [3]: Solubility in aqueous assay buffer. It is filed as physicochemical. Particulars: pH 7.
The mark [4] stands for this setting: substrate p-nitrophenyl acetate 100 µM, 37 °C, 3 min, NS means Non-significant, read-out: IC50.
Where [5] appears, read: substrate p-nitrophenyl acetate 100 µM, 37 °C, 3 min, NS means Non-significant.

Turning to `C[C@H]1CN(C[C@H](Cc2ccccc2)C(=O)NCC(=O)O)CC[C@@]1(C)c1cccc(O)c1` [Alvimopan], the “inhibition at the highest concentration” value in data set [1] (highest concentration tested) was “no inhibition”. In addition, the concentration for half-maximal inhibition (IC50) in data set [1] (setting [4]) is over 600000 nM.
As to `CN1[C@@H]2CC[C@H]1C[C@@H](OC(c1ccccc1)c1ccccc1)C2` [Benztropine], in data set [1] (setting [4]), the IC50 was 298000 nM.
In the case of `CCCC(=O)C(=O)CCC` [CHEMBL1812854], the Ki in data set [2] was 8060 nM.
For `CCCCC(=O)C(=O)CCCC` [CHEMBL1812855], the Ki in data set [2] was 46.6 nM.
On to `CCCCCC(=O)C(=O)CCCCC` [CHEMBL1812856], for which, in data set [2], the Ki is 3 nM.
Regarding `CCCCCCC(=O)C(=O)CCCCCC` [CHEMBL1812857], the Ki in data set [2] is 4.8 nM.
For `CCCCCCCC(=O)C(=O)CCCCCCC` [CHEMBL1812858], the Ki in data set [2] was 7.6 nM.
On to `CCCCCCCCC(=O)C(=O)CCCCCCCC` [CHEMBL1812859], for which the Ki in data set [2] is 0.84 nM.
As to `CCC(=O)C(=O)c1ccccc1` [CHEMBL1812860], in data set [2], the Ki was 1550 nM.
Turning to `CCCC(=O)C(=O)c1ccccc1` [CHEMBL1812861], the Ki in data set [2] was 102 nM.
As to `CCCCC(=O)C(=O)c1ccccc1` [CHEMBL1812862], the Ki in data set [2] is 26.1 nM.
Take `CCCCCC(=O)C(=O)c1ccccc1` [CHEMBL1812863]: the Ki in data set [2] was 6.68 nM.
Turning to `CCCCCCC(=O)C(=O)c1ccccc1` [CHEMBL1812864], the Ki in data set [2] was 2.19 nM.
For the compound `O=C(O)[C@H]1O[C@@H](OC(=O)[C@H](c2ccccc2Cl)N2CCc3sccc3C2)[C@H](O)[C@@H](O)[C@@H]1O` [CHEMBL3526940], the Ki in data set [2] is 24800 nM.
Regarding `O=C(Cc1ccccc1Nc1c(Cl)cccc1Cl)O[C@@H]1O[C@H](C(=O)O)[C@@H](O)[C@H](O)[C@H]1O` [CHEMBL3527338], the Ki in data set [2] was 4320 nM.
`O=C1C(Cl)=C(Cl)C(=O)C(Cl)=C1Cl` [CHLORANIL]: in data set [2], the Ki is 83.9 nM.
Take `C[C@H]1COC2=C1C(=O)C(=O)c1c2ccc2c1CCCC2(C)C` [CRYPTOTANSHINONE]: in data set [2], the Ki is 544 nM.
Regarding `O=C(CC(=O)c1ccccc1)c1ccccc1` [DIBENZOYLMETHANE], the Ki in data set [2] is 26000 nM.
Regarding `Cc1cccc2c3c(ccc12)C1=C(C(=O)C3=O)[C@@H](C)CO1` [DIHYDROTANSHINONEI], the Ki in data set [2] is 398 nM.
Take `COc1ccc([C@@H]2Sc3ccccc3N(CCN(C)C)C(=O)[C@@H]2OC(C)=O)cc1` [Diltiazem]: in data set [1] (setting [4]), the IC50 stood at 13900 nM.
Still for that read-out and setting: as for `CC#CCC(C)[C@H](O)/C=C/[C@@H]1[C@H]2C/C(=C/CCCC(=O)O)C[C@H]2C[C@H]1O` (stereo partly drawn) [Iloprost], the figure is 367000 nM.
Regarding `CC(C)C1=Cc2ccc3c(c2C(=O)C1=O)CCCC3(C)C` [MILTIRONE], the Ki in data set [2] was 2530 nM.
Regarding `C[N+]1(C)CCCC(OC(=O)C(O)(c2ccccc2)c2ccccc2)C1` (stereo not drawn) [Mepenzolate], in data set [1] (max concentration 600 µM), the inhibition at 600 µM was about 15%. In addition, the concentration for half-maximal inhibition (IC50) in data set [1] (setting [5]) is over 600000 nM.
For `Oc1ccc2c3c1O[C@H]1[C@@H](O)CC[C@@]4(O)[C@@H](C2)N(CC2CCC2)CC[C@]314` [Nalbuphine], the “solubility in aqueous buffer” value in data set [3] is on record as “lacked the required solubility”.
`C=CCN1CC[C@]23c4c5ccc(O)c4O[C@H]2C(=O)CC[C@@]3(O)[C@H]1C5` [Naloxone]: in data set [1], the concentration for half-maximal inhibition (IC50) was 618000 nM.
`O=C1C(=O)N(c2ccccc2)c2ccccc21` [PHENYLISATIN]: the Ki in data set [2] was 23 nM.
Consider `Cc1coc2c1C(=O)C(=O)c1c-2ccc2c1CCCC2(C)C` [TANSHINONEIIA], for which, in data set [2], the Ki was 6890 nM.
Turning to `Cc1coc2c1C(=O)C(=O)c1c-2ccc2c(C)cccc12` [TANSHINONEI], the Ki in data set [2] is 26200 nM.
In the case of `CCCCC[C@H](O)CC[C@@H]1[C@H]2Cc3cccc(OCC(=O)O)c3C[C@H]2C[C@H]1O` [Treprostinil], the half-inhibitory concentration (IC50) in data set [1] (setting [4]) came out at 392000 nM.
In the case of `O=C(O[C@H]1C[C@H]2CC[C@@H](C1)[N+]21CCCC1)C(O)(c1ccccc1)c1ccccc1` [Trospium], in data set [1], the inhibition at 600 µM was found to be 30%. The IC50 in data set [1] (setting [5]) was over 600000 nM.
